These results are taken from US8653235B2, “Cyclic peptide compound or pharmacologically acceptable salt thereof and method for producing same” (Kwansei Gakuin Educational Foundation, priority 2010, dated 2014).

Ends that are not written are not given here.

Assay [1] relates to differentiated cellular architecture containing HaCaT cells. Put plainly: Test Example 7: tissue morphology of differentiated cellular architecture containing HaCaT cells treated with oleic acid (parakeratosis). Format: cell-based, human. The conditions noted are these: 5 μL 0.5 volume % oleic acid-containing ethanol solution and 5 μL sample with peptide 0.001 mass %; one day. As to the method:
In the following experiment, DH10 medium was used as a medium of Experimental No. 36. 1 μL of purified water was added to 1 mL of DH10 medium to obtain a sample (Experimental No. 37). Further, the cyclic peptide compound obtained in Example 1 was added to DH10 medium to a concentration of 0.001 mass % to obtain a sample (Experimental No. 38). Furthermore, the linear peptide obtained in Comparative Example 1 was added to DH10 medium to a concentration of 0.001 mass %, to obtain a sample (Experimental No. 39). MRC-5 cells, which are human fetal lung fibroblast cells, were cultured in 10 mL of α-MEM (produced by Gibco Laboratories containing 10 mass % heat inactivated FCS at 37° C. in a 5 volume % carbon dioxide atmosphere for 72 hours. A support (produced by BD Bioscience Co., Ltd.; trade name: cell culture insert) was provided in each well of a 24 well culture plate. In the support, the MRC-5 cells and a collagen gel mixed solution (collagen type I, produced by Nitta Gelatin, Inc.) were mixed. The obtained mixture was formed into a gel to obtain a cell-embedded gel (1.7×10^5/mL). 0.05 ml of a 1 mg/mL fibronectin aqueous solution (produced by BD Biosciences was added to the upper surface of the obtained cell-embedded gel, and the cell-embedded gel was allowed to stand for 1 hour at room temperature. […]

The test system of a further assay is HaCaT cells. Put plainly: Test Example 2: lumen formation rate in HaCaT cell clusters in collagen gel with oleic acid. The conditions noted are these: oleic acid 0.05 volume %, peptide 0.0001 mass %, cultured 4 days. Format: cell-based, human. As to the method:
In the following experiment, DH10 was used as a medium of Experimental No. 8. […] HaCaT cells were cultured in the DH10 medium at 37° C. in a 5 volume % carbon dioxide atmosphere. Next, the obtained HaCaT cells were suspended in 350 μL of DH10 medium containing 1000 U/mL DNase I (produced by Sigma Aldrich Co.). While rotating the obtained suspended solids in a 24-well dish (produced by Corning Inc., super-low adhesion surface) at 100 min^−1, gyratory culturing was performed for 24 hours at 37° C. in a 5 volume % carbon dioxide atmosphere to form a smooth, round cell aggregate. The formed cell aggregate was embedded in a high-density collagen gel prepared with a 0.5 mass % collagen solution (type IA) (produced by Koken Co., Ltd.). Next, the cell aggregate after embedding was cultured for 4 days in a 5 volume % carbon dioxide atmosphere at 37° C. in the medium of Experimental Nos. 8, 9, 10, or 11 to form a cell cluster. The morphology of the obtained cell cluster was observed by a phase-contrast microscope. In the cell cluster, the outermost layer cells maintain the undifferentiated state because they are in contact with collagen; however, in general, cells that are located inside the undifferentiated cells of the outermost layer promptly start differentiation, and undergo anoikis. […]

In assay [2] the test system is HaCaT-EPM cells. Put plainly: Test Example 1: effect on HaCaT-EPM cell growth (WST-1, Cell Counting Kit). The following applies: peptide 0.001 mass % in DH10 medium. Details: key to Score (growth recovery of HaCaT-EPM cells): ++: Compared to the case of using the control, significant growth recovery of HaCaT-EPM cells was detected (P≦0.01).; +: Compared to the case of using the control, significant growth recovery of HaCaT-EPM cells was detected (P≦0.05).; −: Significant growth recovery of HaCaT-EPM cells was not detected. Format: cell-based, human. How it is done: The cyclic peptide compound obtained in Example 1 was added to purified water to a concentration of […] to obtain a sample. The obtained sample was then added to DH10 medium in such an amount as to achieve a concentration of the cyclic peptide compound obtained in Example 1 of 0.001 mass %. The HaCaT-EPM cells obtained in Production Example 3 were cultured in the obtained medium at 37° C. in a 5 volume % carbon dioxide atmosphere, and the cells were collected over time. After adding 110 μL of a mixture of solution B with reagent A (trade name: “WST-1, ” produced by Dojindo) (the reagent A/Solution B ratio by volume=10/1) provided with a cell counter kit (trade name: “Cell Counting Kit,” produced by Dojindo), the collected cells were incubated for 3 hours. The absorbance of the obtained mixture at 450 nm was measured using a spectrophotometer (trade name: “ARVOtmS X 1420 Multilabel Counter,” produced by Wallac), and the effect of the mixture on the HaCaT-EPM cell growth was investigated. As a control, the above procedure was repeated, except that purified water was used in place of the cyclic peptide compound obtained in Example 1, and the effect on the growth of HaCaT-EPM cells was investigated. […]
(In general: Tetrazolium dyes change colour on reduction, which living cells bring about.)

Assay [3] relates to HaCaT-EPM cells. Put plainly: Test Example 3: lumen formation rate in HaCaT-EPM cell clusters in collagen gel. Format: cell-based, human. The conditions noted are these: peptide 0.0001 mass %, cultured 4 days. As to the method: In the following experiment, DH10 medium was used as the medium of Experimental No. 12. 1 μL of purified water was added to 1 mL of DH10 medium to obtain a medium (Experimental No. 13).
Except for using the HaCaT-EPM cells obtained in Production Example 3 in place of the HaCaT cells in Test Example 2, and the medium of Experimental No. 12, 13, 14, or 15 in place of the medium of Experimental No. 8, 9, 10, or 11 in Test Example 2, the same procedure as in Test Example 2 was performed to calculate a lumen formation rate.

Assay [4] concerns endogenous epimorphin in HaCaT cells. Nature of the assay: Reference Example 1: Western blotting of endogenous epimorphin in HaCaT cells. The conditions noted are these: 0.01 or 0.025 volume % oleic acid in DH10 medium, 3 days. Format: cell-based, human. As to the method:
HaCaT cells were cultured in a 5 volume % carbon dioxide atmosphere at 37° C. for 3 days in DH10 medium (Experiment No. 1), in DH10 medium containing 0.01 volume % oleic acid (Experiment No. 2), or in DH10 medium containing 0.025 volume % oleic acid (Experiment No. 3). The cultured cells were isolated and the obtained cells were dissolved in a solubilizing reagent (composition: 2 volume % SDS, 10 volume % glycerol, 5 volume % 2-mercaptoethanol, 0.008 volume % bromophenol blue, and 0.65 M tris-HCl buffer (pH about 6.8)) to obtain a cell extract. Western blotting was performed using the obtained cell extract and an anti-epimorphin antibody (produced by R & D Systems), and the relationship between oleic acid and the level of expression of endogenous epimorphin in HaCaT cells was investigated. The relationship between oleic acid and the level of expression of β-actin in HaCaT cells was also investigated in the same manner as above except that an anti-β-actin antibody was used in place of the anti-epimorphin antibody.
(In general: Immunoblotting shows a protein as a band on a membrane.)

Assay [5] deals with secreted epimorphin in PT67-TE cell culture supernatant. Put plainly: Reference Example 2: secreted epimorphin in PT67-TE cell culture supernatant (Western blotting). Format: cell-based. The conditions noted are these: 0.01 or 0.025 volume % oleic acid in DH10 medium, 3 days. As to the method:
(§1) The HaCaT-TE cells obtained in Production Example 1 or the PT67-TE cells obtained in Production Example 2 were cultured in DH10 medium (Experiment No. 4), in DH10 medium containing 0.01 volume % oleic acid (Experiment No. 5), or in DH10 medium containing 0.025 volume % oleic acid (Experiment No. 6) in a 5 volume % carbon dioxide atmosphere at 37° C. for 3 days. The HaCaT-TE cells obtained in Production Example 1 or the PT67-TE cells obtained in Production Example 2 were irradiated with ultraviolet light B (UVB) at a dose of 10 mJ/cm^2, and then cultured in DH10 medium in a 5 volume % carbon dioxide atmosphere at 37° C. for 3 days (Experiment No. 7). The obtained culture was centrifuged (at 1000×g for 30 minutes) to obtain a culture supernatant. Using an anti-T7 tag antibody (produced by Novagen) and protein G Sepharose beads (produced by GE Healthcare), secreted epimorphin was collected from the obtained culture supernatant. The collected secreted epimorphin was subjected to Western blotting. Using an HRP-labeled anti-T7 tag antibody (produced by Novagen), the relationship between oleic acid and the amount of secreted epimorphin in each of the HaCaT-TE cell culture supernatant and the PT67-TE cell culture supernatant was investigated.

In assay [6] the test system is secreted epimorphin in HaCaT-TE cell culture supernatant. Put plainly: Reference Example 2: secreted epimorphin in HaCaT-TE cell culture supernatant (Western blotting). Format: cell-based, human. The following applies: 0.01 or 0.025 volume % oleic acid in DH10 medium, 3 days. How it is done:
as §1

As to SIEQSCD [Comparative Example 1], the “tissue morphology of the cell construct (nucleus; parakeratosis caused by oleic acid)” value in assay [1] is listed as “a nucleus could be observed”. Further, the “lumen formation rate in cell clusters” value in the assay with HaCaT cells and in the assay with HaCaT-EPM cells [3] was “low lumen formation rate” in each case. The “growth of HaCaT-EPM cells” value in the assay with HaCaT-EPM cells [2] is on record as “grew poorly”. Besides, in the assay on HaCaT-EPM cells [2] (compared to purified water control, absorbance at 450 nm), the “Score (growth recovery of HaCaT-EPM cells)” value is “−”.
As to `CCCCCCCC/C=C\CCCCCCCC(=O)O` [oleic acid], the “level of expression of endogenous epimorphin in HaCaT cells” value in assay [4] is recorded as “does not substantially affect”. For the same compound, the “secreted epimorphin in PT67-TE cell culture supernatant” value in assay [5] is on record as “not detected”. The “secreted epimorphin in HaCaT-TE cell culture supernatant” value in assay [6] is reported as “induces secretion of epimorphin”.
